In PubChem BioAssay AID2060895 (Molecular Pharmacology Branch, DTP, NCI, 2025):

Test system: PDC 899932-113-R3-J6 complex spheroid viability
Assay: Anticancer human tumor 899932-113-R3-J6-PDC patient-derived melanoma cell line growth inhibition [RAS]
Settings: for IC50: curve of first compound; for viability, T/C: stronger effect = lower value
How it was run: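 Tumour cells grown as complex spheroids with HUVEC endothelial cells and mesenchymal stem cells, treated with RAS pathway inhibitor combinations. Each agent spans half-log steps from near clinical Cmax, or 10 microM where Cmax is unknown.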

[1] = second compound 0.0316 µM, first compound 0.0316 µM
[2] = second compound 0.0316 µM, first compound 0.1 µM
[3] = second compound 0.0316 µM, first compound 0.316 µM
[4] = second compound 0.0316 µM, first compound 1 µM
[5] = second compound 0.1 µM, first compound 0.0316 µM
[6] = second compound 0.1 µM, first compound 0.1 µM
[7] = second compound 0.1 µM, first compound 0.316 µM
[8] = second compound 0.1 µM, first compound 1 µM
[9] = second compound 0.316 µM, first compound 0.0316 µM
[10] = second compound 0.316 µM, first compound 0.1 µM
[11] = second compound 0.316 µM, first compound 0.316 µM
[12] = second compound 0.316 µM, first compound 1 µM
[13] = second compound 1 µM, first compound 0.0316 µM
[14] = second compound 1 µM, first compound 0.1 µM
[15] = second compound 1 µM, first compound 0.316 µM
[16] = second compound 1 µM, first compound 1 µM
[17] = second compound 3.16 µM, first compound 0.0316 µM
[18] = second compound 3.16 µM, first compound 0.1 µM
[19] = second compound 3.16 µM, first compound 0.316 µM
[20] = second compound 3.16 µM, first compound 1 µM
[21] = second compound 10 µM, first compound 0.0316 µM
[22] = second compound 10 µM, first compound 0.1 µM
[23] = second compound 10 µM, first compound 0.316 µM
[24] = second compound 10 µM, first compound 1 µM
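Wherever viability, T/C is given: spheroids exposed to agents for seven days before readout; 100% = DMSO vehicle control wells.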

`C=CC(=O)N1CCN(c2nc(OCC3CCCN3C)nc3c(F)c(-c4nc(N)cc(C)c4C(F)(F)F)c(Cl)cc23)C(C)C1` (stereo unspecified) + C#Cc1c(F)ccc2cc(O)cc(-c3ncc4c(N5CC6CCC(C5)N6)nc(OCC56CCCN5CC(F)C6)nc4c3F)c12 was tested, and the IC50 (second compound 0.0316 µM) was > 1 µM, the IC50 (second compound 0.1 µM) was > 1 µM and the IC50 (second compound 0.316 µM) was > 1 µM. The IC50 (second compound 1 µM) was > 1 µM, the IC50 (second compound 3.16 µM) was > 1 µM and the IC50 (second compound 10 µM) was > 1 µM. The viability, T/C (second compound 0.0316 µM, first compound 0.00316 µM) was 116%, the viability, T/C (second compound 0.0316 µM, first compound 0.01 µM) was 107% and the viability, T/C [1] was 101%. The viability, T/C [2] was 108%, the viability, T/C [3] was 110% and the viability, T/C [4] was 104%. The viability, T/C (second compound 0.1 µM, first compound 0.00316 µM) was 112%, the viability, T/C (second compound 0.1 µM, first compound 0.01 µM) was 106% and the viability, T/C [5] was 105%. It also gave a viability, T/C [6] of 117%, a viability, T/C [7] of 111% and a viability, T/C [8] of 106%. It also gave a viability, T/C (second compound 0.316 µM, first compound 0.00316 µM) of 112%, a viability, T/C (second compound 0.316 µM, first compound 0.01 µM) of 115% and a viability, T/C [9] of 107%. For the same molecule, the viability, T/C [10] was 108%, the viability, T/C [11] was 117% and the viability, T/C [12] was 112%. It also gave a viability, T/C (second compound 1 µM, first compound 0.00316 µM) of 120%, a viability, T/C (second compound 1 µM, first compound 0.01 µM) of 108% and a viability, T/C [13] of 115%. The viability, T/C [14] was 112%, the viability, T/C [15] was 125% and the viability, T/C [16] was 102%. It also gave a viability, T/C (second compound 3.16 µM, first compound 0.00316 µM) of 129%, a viability, T/C (second compound 3.16 µM, first compound 0.01 µM) of 113% and a viability, T/C [17] of 120%. The viability, T/C [18] was 133%, the viability, T/C [19] was 124% and the viability, T/C [20] was 110%. It also gave a viability, T/C (second compound 10 µM, first compound 0.00316 µM) of 118%, a viability, T/C (second compound 10 µM, first compound 0.01 µM) of 115% and a viability, T/C [21] of 122%. It also gave a viability, T/C [22] of 125%, a viability, T/C [23] of 110% and a viability, T/C [24] of 102%.
`CC(=O)OC12COC1CC(O)C1(C)C(=O)C(O)C3=C(C)C(OC(=O)C(O)C(NC(=O)OC(C)(C)C)c4ccccc4)CC(O)(C(OC(=O)c4ccccc4)C21)C3(C)C` (stereo unspecified) + C#Cc1c(F)ccc2cc(O)cc(-c3ncc4c(N5CC6CCC(C5)N6)nc(OCC56CCCN5CC(F)C6)nc4c3F)c12 was tested, and the IC50 (second compound 0.0316 µM) was < 0.0316 µM, the IC50 (second compound 0.1 µM) was < 0.0316 µM and the IC50 (second compound 0.316 µM) was < 0.0316 µM. The IC50 (second compound 1 µM) was < 0.0316 µM, the IC50 (second compound 3.16 µM) was < 0.0316 µM and the IC50 (second compound 10 µM) was < 0.0316 µM. It also gave a viability, T/C [1] of 33.1%, a viability, T/C [2] of 32.1% and a viability, T/C [3] of 39.9%. It also gave a viability, T/C [4] of 48.3%, a viability, T/C (second compound 0.0316 µM, first compound 3.16 µM) of 67.1% and a viability, T/C (second compound 0.0316 µM, first compound 10 µM) of 67.7%. For the same molecule, the viability, T/C [5] was 31.8%, the viability, T/C [6] was 31.7% and the viability, T/C [7] was 36.1%. The viability, T/C [8] was 49.5%, the viability, T/C (second compound 0.1 µM, first compound 3.16 µM) was 74.5% and the viability, T/C (second compound 0.1 µM, first compound 10 µM) was 81.8%. The viability, T/C [9] was 32.3%, the viability, T/C [10] was 30.5% and the viability, T/C [11] was 38.8%. For the same molecule, the viability, T/C [12] was 53.4%, the viability, T/C (second compound 0.316 µM, first compound 3.16 µM) was 67.4% and the viability, T/C (second compound 0.316 µM, first compound 10 µM) was 82.8%. It also gave a viability, T/C [13] of 30.7%, a viability, T/C [14] of 35% and a viability, T/C [15] of 41.3%. For the same molecule, the viability, T/C [16] was 45.5%, the viability, T/C (second compound 1 µM, first compound 3.16 µM) was 75.1% and the viability, T/C (second compound 1 µM, first compound 10 µM) was 78.9%. For the same molecule, the viability, T/C [17] was 32.1%, the viability, T/C [18] was 34.4% and the viability, T/C [19] was 37.5%. The viability, T/C [20] was 49.6%, the viability, T/C (second compound 3.16 µM, first compound 3.16 µM) was 63.2% and the viability, T/C (second compound 3.16 µM, first compound 10 µM) was 73.9%. For the same molecule, the viability, T/C [21] was 35.3%, the viability, T/C [22] was 28.9% and the viability, T/C [23] was 36.4%. It also gave a viability, T/C [24] of 46.5%, a viability, T/C (second compound 10 µM, first compound 3.16 µM) of 66.4% and a viability, T/C (second compound 10 µM, first compound 10 µM) of 69.7%.
`CCc1c2c(nc3ccc(O)cc13)-c1cc3c(c(=O)n1C2)COC(=O)[C@]3(O)CC` + C#Cc1c(F)ccc2cc(O)cc(-c3ncc4c(N5CC6CCC(C5)N6)nc(OCC56CCCN5CC(F)C6)nc4c3F)c12 showed an IC50 (second compound 0.0316 µM) of 0.0118 µM, an IC50 (second compound 0.1 µM) of 0.0208 µM and an IC50 (second compound 0.316 µM) of 0.0366 µM. The IC50 (second compound 1 µM) was 0.0371 µM, the IC50 (second compound 3.16 µM) was 0.0331 µM and the IC50 (second compound 10 µM) was 0.0322 µM. It also gave a viability, T/C (second compound 0.0316 µM, first compound 0.000949 µM) of 108%, a viability, T/C (second compound 0.0316 µM, first compound 0.003 µM) of 63.5% and a viability, T/C (second compound 0.0316 µM, first compound 0.00949 µM) of 56.8%. The viability, T/C (second compound 0.0316 µM, first compound 0.03 µM) was 45.1%, the viability, T/C (second compound 0.0316 µM, first compound 0.0949 µM) was 41.5% and the viability, T/C (second compound 0.0316 µM, first compound 0.3 µM) was 34.2%. For the same molecule, the viability, T/C (second compound 0.1 µM, first compound 0.000949 µM) was 85.7%, the viability, T/C (second compound 0.1 µM, first compound 0.003 µM) was 69.6% and the viability, T/C (second compound 0.1 µM, first compound 0.00949 µM) was 50.6%. It also gave a viability, T/C (second compound 0.1 µM, first compound 0.03 µM) of 50.2%, a viability, T/C (second compound 0.1 µM, first compound 0.0949 µM) of 44.5% and a viability, T/C (second compound 0.1 µM, first compound 0.3 µM) of 33.2%. The viability, T/C (second compound 0.316 µM, first compound 0.000949 µM) was 81.2%, the viability, T/C (second compound 0.316 µM, first compound 0.003 µM) was 74.3% and the viability, T/C (second compound 0.316 µM, first compound 0.00949 µM) was 54%. For the same molecule, the viability, T/C (second compound 0.316 µM, first compound 0.03 µM) was 54%, the viability, T/C (second compound 0.316 µM, first compound 0.0949 µM) was 42.6% and the viability, T/C (second compound 0.316 µM, first compound 0.3 µM) was 35.2%. It also gave a viability, T/C (second compound 1 µM, first compound 0.000949 µM) of 91.7%, a viability, T/C (second compound 1 µM, first compound 0.003 µM) of 74% and a viability, T/C (second compound 1 µM, first compound 0.00949 µM) of 63%. For the same molecule, the viability, T/C (second compound 1 µM, first compound 0.03 µM) was 52.2%, the viability, T/C (second compound 1 µM, first compound 0.0949 µM) was 43.3% and the viability, T/C (second compound 1 µM, first compound 0.3 µM) was 32.2%. For the same molecule, the viability, T/C (second compound 3.16 µM, first compound 0.000949 µM) was 99%, the viability, T/C (second compound 3.16 µM, first compound 0.003 µM) was 74.5% and the viability, T/C (second compound 3.16 µM, first compound 0.00949 µM) was 60%. It also gave a viability, T/C (second compound 3.16 µM, first compound 0.03 µM) of 54.2%, a viability, T/C (second compound 3.16 µM, first compound 0.0949 µM) of 44.9% and a viability, T/C (second compound 3.16 µM, first compound 0.3 µM) of 33.5%. For the same molecule, the viability, T/C (second compound 10 µM, first compound 0.000949 µM) was 101%, the viability, T/C (second compound 10 µM, first compound 0.003 µM) was 71% and the viability, T/C (second compound 10 µM, first compound 0.00949 µM) was 66.8%. For the same molecule, the viability, T/C (second compound 10 µM, first compound 0.03 µM) was 47.3%, the viability, T/C (second compound 10 µM, first compound 0.0949 µM) was 47.9% and the viability, T/C (second compound 10 µM, first compound 0.3 µM) was 33.9%.
